The values below come from patent US12648986B2, “PLD for use in combination in the treatment of coronavirus” (PHARMA MAR, S.A., priority 2020, dated 2026).

The term IC50 denotes the concentration at which inhibition is half-maximal.

Like-named read-outs stand apart in the source and are kept apart here.

In series [1] the test system is SARS-CoV-2. As to the kind of experiment: Cytopathic effect on Vero E6 cells exposed to SARS-CoV-2 (CellTiter-Glo). The class given is cell-based. The conditions noted are these: for IC50: read-out: mean IC50 value and SD, SARS-CoV-2-induced cytopathic effect. For orientation: Cytopathic effects are the visible damage that an infection or toxin causes in cultured cells.

The subject of series [2] is human stem cell-derived pneumocyte like cells. The settings on record: 10 nm plitidepsin, 48 hour incubation.
The test system of series [3] is SARS-CoV-2. Kind of series: Mouse model of adenovirus-mediated hACE2 infected with SARS-CoV-2. The class given is in vivo.
The subject of the next series is CD45+ cells. Kind of series: Ex vivo cytokine expression in CD45+ cells from broncho-alveolar lavages of mice, LPS-B5 stimulation. The conditions noted are these: cells from plitidepsin treated mice. The text has this:
An ex vivo study assessed the effect of plitidepsin on expression of the cytokines IL 6, IL 10, and TNFα in the lungs of mice.

The target in another series is eEF1A (Oryctolagus cuniculus, UniProt Q71V39). Kind of series: Binding of 14C-plitidepsin to purified eEF1A. The settings on record: eEF1A purified from rabbit muscle.
Series [4] relates to SARS-CoV-2. Kind of series: K18-hACE2 transgenic mice infected with SARS-CoV-2. The class given is in vivo.
The subject of series [5] is SARS-CoV-2. Kind of series: Vero E6 cells infected with SARS-CoV-2, direct quantitation of nucleocapsid (N) protein. The class given is cell-based. The conditions noted are these: Severe acute respiratory syndrome coronavirus 2, Vero C1008, two studies, read-out: IC50, SARS-CoV-2 growth in vitro.
For series [6], the system named is SARS-CoV-2. As to the kind of experiment: SARS-CoV-2 replication in human stem cell-derived pneumocyte like cells. The class given is cell-based. The conditions noted are these: 10 nM plitidepsin for 1 hour before infection, 48 hour incubation. On the procedure: Several in vitro experiments aimed at determining the effect of plitidepsin on SARS-CoV-2 were carried out and are disclosed herein. […] In another study, human stem cell-derived pneumocyte like cells were prophylactically exposed to 10 nm plitidepsin for 1 hour and then infected with SARS-CoV-2 (4×10^4 plaque forming units). After a 48 hour incubation period, both antiviral and cytotoxic plitidepsin effects were determined.

Where [7] appears, read: Severe acute respiratory syndrome coronavirus 2, Vero C1008, 72 h.

Sequence of eEF1A (Q71V39 whole entry): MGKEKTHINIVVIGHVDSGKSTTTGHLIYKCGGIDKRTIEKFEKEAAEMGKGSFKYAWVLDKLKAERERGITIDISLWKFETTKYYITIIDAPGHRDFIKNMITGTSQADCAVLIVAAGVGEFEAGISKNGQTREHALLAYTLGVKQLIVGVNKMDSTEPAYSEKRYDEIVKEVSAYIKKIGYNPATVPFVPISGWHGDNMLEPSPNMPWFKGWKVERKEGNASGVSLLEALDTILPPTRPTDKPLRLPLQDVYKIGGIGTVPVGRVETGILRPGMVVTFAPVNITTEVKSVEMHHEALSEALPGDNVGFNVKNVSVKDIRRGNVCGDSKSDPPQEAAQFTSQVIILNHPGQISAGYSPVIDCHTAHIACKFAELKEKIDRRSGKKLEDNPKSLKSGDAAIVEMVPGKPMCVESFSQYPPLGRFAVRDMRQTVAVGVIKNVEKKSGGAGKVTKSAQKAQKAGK

For the molecule `CCN(CCO)CCCC(C)Nc1ccnc2cc(Cl)ccc12` (stereo not shown) [Hydroxychloroquine, hydroxychloroquine], the IC50 in the series on SARS-CoV-2 [1] (setting [7]) worked out at 9300 ± 11100 nM. The “cytotoxic effects of the drug at concentrations inhibiting viral-induced cytopathic effect” value in the series with Vero E6 cells (Vero E6, absence of virus) is given as “no cytotoxic effects of the drug were observed”.
Turning to `CC[C@H](C)[C@H]1NC(=O)[C@@H](NC(=O)[C@@H](CC(C)C)N(C)C(=O)[C@@H]2CCCN2C(=O)C(C)=O)[C@@H](C)OC(=O)[C@H](Cc2ccc(OC)cc2)N(C)C(=O)[C@@H]2CCCN2C(=O)[C@H](CC(C)C)NC(=O)[C@@H](C)C(=O)[C@H](C(C)C)OC(=O)C[C@@H]1O` [PLD, (−)-(3S,6R,7S,10R,11S,15S,17S,20S,25aS)-11-hydroxy-3-(4-methoxybenzyl)-2,6,17-trimethyl-15-(1-methylethyl)-7-[[(2R)-4-methyl-2-[methyl[[(2S)-1-(2-oxopropanoyl)pyrrolidin-2-yl]carbonyl]amino]pentanoyl]amino]-10-[(1S)-1-methylpropyl]-20-(2-methylpropyl)tetradecahydro-15H-pyrrolo[2,1-f]-[1,15,4,7,10,20]dioxatetrazacyclotricosine-1,4,8,13,16,18,21(17H)-heptaone], the “cytotoxicity against pneumocyte like cells” value in [2] was “no observable cytotoxicity”. In addition, the IC50 with SARS-CoV-2 [1] (setting [7]) was 51 ± 20 nM; in the series on SARS-CoV-2 [5], 0.7 to 3 nM. Moreover, the “antiviral effects in vivo” value in the series on SARS-CoV-2 [3] and in the series with SARS-CoV-2 [4] was “potent antiviral effects” each time. Also, the “cytotoxic effects of the drug at concentrations inhibiting viral-induced cytopathic effect” value in the series with Vero E6 cells (Vero E6, absence of virus) is reported as “no cytotoxic effects of the drug were observed”. In addition, the “IL 6, IL 10 and TNFα in CD45+ cells upon LPS-B5 stimulation vs nonstimulated controls” value in the series with CD45+ cells is “failed to show a marked increase”. The “affinity for eEF1A” value at eEF1A is recorded as “high affinity”. In addition, the “rate of dissociation from eEF1A” value at eEF1A is given as “low rate of dissociation”. In addition, the “replication of SARS-CoV-2” value with SARS-CoV-2 [6] is given as “completely eliminated replication of SARS-CoV-2”.
For MDL28170 [MDL 28170], in the series with SARS-CoV-2 [1] (Vero E6, single drug, 3 days post infection, independent experiments with two replicates each), the IC50 is 140 ± 60 nM. In addition, the “cytotoxic effects of the drug at concentrations inhibiting viral-induced cytopathic effect” value in the series with Vero E6 cells (Vero E6, absence of virus) was “no cytotoxicity of the drug was observed”.
Turning to nelfinavir mesylate hydrate, the “capacity to inhibit SARS-CoV-2-induced cytopathic effect” value with SARS-CoV-2 [1] (Vero E6, 100 μM to 0.0512 nM) is recorded as “confirmed to have in vitro capacity to inhibit SARS-CoV-2-induced cytopathic effect”. The “cytotoxic effects of the drug at concentrations inhibiting viral-induced cytopathic effect” value in the series on Vero E6 cells is “no cytotoxicity of the drug was observed”.
